Data reported in ChEMBL document CHEMBL5244223, “l,8-Naphthalimide based DNA intercalators and anticancer agents. A systematic review from 2007 to 2017” (Eur J Med Chem, 2018).
≈ marks a conversion by molar mass, not a printed value.

What was measured:
SMMC-7721 = assay: Antiproliferative activity against human SMMC-7721 cells assessed as inhibition of cell proliferation incubated for 48 hrs by MTT assay; assay type: functional, cell-based; conditions: SMMC-7721, 48 h
K562 [1] = assay: Antiproliferative activity against human K562 cells assessed as inhibition of cell proliferation incubated for 48 hrs by MTT assay; assay type: functional, cell-based; conditions: K562, 48 h
HCT-116 = assay: Antiproliferative activity against human HCT-116 cells assessed as inhibition of cell proliferation incubated for 48 hrs by MTT assay; assay type: functional, cell-based; conditions: HCT-116, 48 h
MDA-MB-231 = assay: Antiproliferative activity against human MDA-MB-231 cells assessed as inhibition of cell proliferation incubated for 48 hrs by MTT assay; assay type: functional, cell-based; conditions: MDA-MB-231, 48 h
[2] = Antiproliferative activity against human QSG7701 cells assessed as inhibition of cell proliferation incubated for 48 hrs by MTT assay; assay type: toxicity, cell-based
HepG2 = assay: Antiproliferative activity against human HepG2 cells assessed as inhibition of cell proliferation incubated for 48 hrs by MTT assay; assay type: functional, cell-based; conditions: HepG2, 48 h
A549 = assay: Cytotoxicity against human A549 cells assessed as inhibition of cell growth incubated for 48 hrs by MTT assay; assay type: functional, cell-based; conditions: A549, 48 h
K562 [3] = assay: Cytotoxicity against human K562 cells assessed as inhibition of cell growth incubated for 48 hrs by MTT assay; assay type: functional, cell-based; conditions: K562, 48 h
HeLa = assay: Cytotoxicity against human HeLa cells assessed as inhibition of cell growth incubated for 48 hrs by MTT assay; assay type: functional, cell-based
Calf thymus DNA = assay: Binding affinity to calf thymus DNA assessed as DNA intercalation by measuring change in melting temperature by thermal denaturation assay; assay type: nucleic-acid assay; conditions: Bos taurus
Pseudomonas aeruginosa = assay: Antibacterial activity against Pseudomonas aeruginosa MTCC 741 assessed as inhibition of bacterial growth by agar well diffusion assay; assay type: functional
Escherichia coli = assay: Antibacterial activity against Escherichia coli MTCC 443 assessed as inhibition of bacterial growth by agar well diffusion assay; assay type: functional
Staphylococcus aureus = assay: Antibacterial activity against Staphylococcus aureus MTCC 96 assessed as inhibition of bacterial growth by agar well diffusion assay; assay type: functional
[4] = tested on: Staphylococcus epidermidis; assay: Antibacterial activity against Staphylococcus epidermidis MTCC 435 assessed as inhibition of bacterial growth by agar well diffusion assay; assay type: functional
[5] = Cytotoxicity against human QSG7701 cells assessed as inhibition of cell growth incubated for 48 hrs by MTT assay; assay type: toxicity, cell-based

Row | IC50 (SMMC-7721) [µM] | IC50 (K562 [1]) [µM] | IC50 (HCT-116) [µM] | IC50 (MDA-MB-231) [µM] | IC50 (HepG2) [µM] | ΔTm (Calf thymus DNA) [°C] | MIC (Pseudomonas aeruginosa) [µg/mL] | MIC (Escherichia coli) [µg/mL] | MIC (Staphylococcus aureus) [µg/mL] | MIC [4] [µg/mL] | SMILES | IC50 at 48 h [2] [µM] | also measured
1 | > 50 | > 50 | > 50 | > 50 | > 50 |  |  |  |  |  | CCCCNC(=O)Nc1cc2c3c(cccc3c1)C(=O)N(CCN(C)C)C2=O | > 50 | 
2 | > 50 | > 50 | > 50 | > 50 | > 50 |  |  |  |  |  | CN(C)CCN1C(=O)c2cccc3cc(NC(=O)NCCCCN)cc(c23)C1=O | > 50 | 
3 | > 50 | > 50 | > 50 | > 50 | > 50 |  |  |  |  |  | CN(C)CCN1C(=O)c2cccc3cc(NC(=O)NCCCNCCCNCCCCN)cc(c23)C1=O | > 50 | 
4 |  |  |  |  |  |  |  |  |  |  | CN(C)CCN1C(=O)c2cccc3cc(NC(=O)CNC(=O)C(Cl)Cl)cc(c23)C1=O |  | IC50 (A549): 4.7 µM; IC50 (K562 [3]): 8.5 µM; IC50 (HeLa): 21.5 µM
5 |  |  |  |  |  |  |  |  |  |  | CN(C)CCN1C(=O)c2cccc3cc(NC(=O)CCCCCNC(=O)C(Cl)Cl)cc(c23)C1=O |  | IC50 (A549): 4.7 µM; IC50 (K562 [3]): 8.5 µM; IC50 (HeLa): 21.5 µM
6 |  |  |  |  |  | 0.1 | 18.8 (≈ 21.3 µM) | 18.8 (≈ 21.3 µM) | 18.8 (≈ 21.3 µM) | 18.8 (≈ 21.3 µM) | O=C1c2ccc3c4c(ccc(c24)C(=O)N1c1nc(-c2cc4cc(Br)ccc4oc2=O)cs1)C(=O)N(c1nc(-c2cc4cc(Br)ccc4oc2=O)cs1)C3=O |  | 
7 |  |  |  |  |  | 0.1 | 18.8 (≈ 21.8 µM) | 18.8 (≈ 21.8 µM) | 18.8 (≈ 21.8 µM) | 18.8 (≈ 21.8 µM) | O=C1c2ccc3c4c(ccc(c24)C(=O)N1c1nc(-c2cc4cc(Cl)cc(Cl)c4oc2=O)cs1)C(=O)N(c1nc(-c2cc4cc(Cl)cc(Cl)c4oc2=O)cs1)C3=O |  | 
8 | 6.42 | 6.42 | 6.42 | 6.42 | 6.42 |  |  |  |  |  | CN(C)CCN1C(=O)c2cccc3cc(NC(=O)CNCCCCNCCCCNCCCCN)cc(c23)C1=O | 6.42 | 
9 | > 50 | > 50 | > 50 | > 50 | > 50 |  |  |  |  |  | CCCCCCCNC(=O)Nc1cc2c3c(cccc3c1)C(=O)N(CCN(C)C)C2=O | > 50 | 
10 |  |  |  |  |  | 0.1 | 18.8 (≈ 41.3 µM) | 18.8 (≈ 41.3 µM) | 18.8 (≈ 41.3 µM) | 18.8 (≈ 41.3 µM) | COc1cccc2cc(-c3csc(N4C(=O)c5cccc6cccc(c56)C4=O)n3)c(=O)oc12 |  | 
11 | 8.62 | 8.62 | 8.62 | > 50 | > 50 |  |  |  |  |  | CN(C)CCNC(=O)Nc1cc2c3c(cccc3c1)C(=O)N(CCN(C)C)C2=O | > 50 | 
12 | 6.42 | 6.42 | 6.42 | 6.42 | 6.42 |  |  |  |  |  | CN(C)CCN1C(=O)c2cccc3cc(NC(=O)CNCCCNCCCCNCCCN)cc(c23)C1=O | 6.42 | 
13 |  |  |  |  |  | 24.3 | 18.8 (≈ 23.7 µM) | 18.8 (≈ 23.7 µM) | 18.8 (≈ 23.7 µM) | 18.8 (≈ 23.7 µM) | O=C1c2ccc3c4c(ccc(c24)C(=O)N1c1nc(-c2cc4cc(Cl)ccc4oc2=O)cs1)C(=O)N(c1nc(-c2cc4cc(Cl)ccc4oc2=O)cs1)C3=O |  | 
14 |  |  |  |  |  | 0.1 | 18.8 (≈ 18.1 µM) | 18.8 (≈ 18.1 µM) | 18.8 (≈ 18.1 µM) | 18.8 (≈ 18.1 µM) | O=C1c2ccc3c4c(ccc(c24)C(=O)N1c1nc(-c2cc4cc(Br)cc(Br)c4oc2=O)cs1)C(=O)N(c1nc(-c2cc4cc(Br)cc(Br)c4oc2=O)cs1)C3=O |  | 
15 |  |  |  |  |  | 0.1 | 18.8 (≈ 40.9 µM) | 18.8 (≈ 40.9 µM) | 18.8 (≈ 40.9 µM) | 18.8 (≈ 40.9 µM) | O=C1c2cccc3cccc(c23)C(=O)N1c1nc(-c2cc3cc(Cl)ccc3oc2=O)cs1 |  | 
16 |  |  |  |  |  |  |  |  |  |  | CN(C)CCN1C(=O)c2cccc3cc(NC(=O)CCCN)cc(c23)C1=O |  | IC50 (A549): 4.7 µM; IC50 (K562 [3]): 8.5 µM; IC50 (HeLa): 21.5 µM
17 |  |  |  |  |  |  |  |  |  |  | CN(C)CCN1C(=O)c2cccc3cc(NC(=O)CCCNC(=O)C(Cl)Cl)cc(c23)C1=O |  | IC50 (A549): 4.7 µM; IC50 (K562 [3]): 8.5 µM; IC50 (HeLa): 21.5 µM
18 |  |  |  |  |  |  |  |  |  |  | NCCCNCCCCNCCCN1C(=O)c2cccc3cccc(c23)C1=O |  | IC50 at 48 h [5]: > 50 µM
